How the values were obtained:
Recombinant IKKβ = molecular target: T1, Recombinant IKKβ (Homo sapiens, UniProt O14920); experiment: DELFIA IKKβ kinase assay (apparent Ki, Cheng-Prusoff); type: biochemical
T1 construct: purchased Millipore, Dundee, UK
T1 sequence (O14920 1-756): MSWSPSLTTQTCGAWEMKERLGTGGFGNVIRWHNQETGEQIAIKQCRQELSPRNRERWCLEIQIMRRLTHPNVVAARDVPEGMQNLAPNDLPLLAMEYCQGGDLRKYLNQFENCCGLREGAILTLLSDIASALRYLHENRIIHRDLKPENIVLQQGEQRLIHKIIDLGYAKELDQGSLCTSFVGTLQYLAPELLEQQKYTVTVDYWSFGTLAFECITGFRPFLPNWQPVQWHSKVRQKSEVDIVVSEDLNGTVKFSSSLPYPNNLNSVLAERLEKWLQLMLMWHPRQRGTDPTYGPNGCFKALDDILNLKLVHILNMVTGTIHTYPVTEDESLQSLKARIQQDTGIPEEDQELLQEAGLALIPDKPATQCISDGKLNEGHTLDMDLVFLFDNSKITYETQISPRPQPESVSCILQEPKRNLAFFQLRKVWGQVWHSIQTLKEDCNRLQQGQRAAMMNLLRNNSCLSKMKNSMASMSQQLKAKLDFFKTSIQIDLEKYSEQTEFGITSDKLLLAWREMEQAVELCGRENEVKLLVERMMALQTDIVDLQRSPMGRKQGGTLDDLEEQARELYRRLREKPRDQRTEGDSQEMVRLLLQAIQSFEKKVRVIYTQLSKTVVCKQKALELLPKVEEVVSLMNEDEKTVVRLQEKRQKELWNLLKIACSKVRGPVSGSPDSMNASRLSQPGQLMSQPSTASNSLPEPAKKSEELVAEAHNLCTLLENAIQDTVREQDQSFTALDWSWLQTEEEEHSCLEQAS
Protocol: (§1) IKKα and IKKβ inhibitory activity was determined using three different assays: a dissociation enhanced ligand fluorescent immunoassay (DELFIA) based on the protocol of HTScan™ IKKβ Kinase Assay (Cell Signaling Technology, USA); an Adapta IKKα assay (performed by Life Technologies); a Z′-LYTE™ IKKβ assay (performed by Life Technologies).
(§2) Recombinant IKKα or IKKβ, 37 nM, (Millipore, Dundee, UK) was incubated with IηB-α (Ser32) (New England Biolabs, Hitchin, UK) biotinylated peptide substrate (0.375 μM) and 40 μM ATP in assay buffer (40 mM Tris-HCl (pH 7.5), 20 mM MgCl2, EDTA 1 mM, DTT 2 mM and BSA 0.01 mg/ml) in a V-well 96-well plate in the presence and absence of test compound. The assay plate was incubated for 60 minutes at 30° C. after which the kinase reaction was quenched by the addition of 50 mM EDTA, pH8. The resulting mixture was transferred to a streptavidin coated 96-well plate (Perkin Elmer, Beaconsfield, UK) and incubated for 1 hour at 30° C. to immobilise the substrate peptide. After three washes with wash buffer (0.01 M phosphate buffered saline (PBS), 0.05% Tween −20, pH 7.4) a primary antibody against the phosphorylated substrate (phospho-IηB-a) (Ser32/36) (5A5) Mouse mAb (New England Biolabs, Hitchin, UK) (1:1000 dilution with 1% bovine serum albumin (BSA) in wash buffer) was added and incubated at 37° C. for 2 h.
(§3) After a further three washes, a secondary europiated antibody (Eu-N1 labelled anti-mouse IgG, (Perkin Elmer, Beaconsfield, UK) diluted 1:500 in 1% BSA/wash buffer) was added and incubated at 30° C. for 30 minutes. After a further five washes, DELFIA enhancement solution—(Perkin Elmer, Beaconsfield UK) was added and allowed to incubate for 10 min at room temperature, protected from light, to facilitate the chemifluorescent detection. The relative fluorescence units (RFU) signal were measured on a Wallac Victor 1420 multilabel counter (Perkin Elmer, Beaconsfield, UK), in time-resolved fluorescence mode. The counter was set at an excitation wavelength of 340 nm with a 400 μs delay before detecting emitted light at 615 nm. The apparent Ki of the […] was calculated for each compound using the Cheng-Prusoff Equation.
(§4) The IKKα and IKKβ figures quoted in non-italicised form are from the DELFIA assay described above.

Recombinant IKKα = molecular target: T2, Recombinant IKKα (Homo sapiens, UniProt O15111); experiment: DELFIA IKKα kinase assay (apparent Ki, Cheng-Prusoff); type: biochemical
T2 construct: purchased Millipore, Dundee, UK
T2 sequence (O15111 1-745): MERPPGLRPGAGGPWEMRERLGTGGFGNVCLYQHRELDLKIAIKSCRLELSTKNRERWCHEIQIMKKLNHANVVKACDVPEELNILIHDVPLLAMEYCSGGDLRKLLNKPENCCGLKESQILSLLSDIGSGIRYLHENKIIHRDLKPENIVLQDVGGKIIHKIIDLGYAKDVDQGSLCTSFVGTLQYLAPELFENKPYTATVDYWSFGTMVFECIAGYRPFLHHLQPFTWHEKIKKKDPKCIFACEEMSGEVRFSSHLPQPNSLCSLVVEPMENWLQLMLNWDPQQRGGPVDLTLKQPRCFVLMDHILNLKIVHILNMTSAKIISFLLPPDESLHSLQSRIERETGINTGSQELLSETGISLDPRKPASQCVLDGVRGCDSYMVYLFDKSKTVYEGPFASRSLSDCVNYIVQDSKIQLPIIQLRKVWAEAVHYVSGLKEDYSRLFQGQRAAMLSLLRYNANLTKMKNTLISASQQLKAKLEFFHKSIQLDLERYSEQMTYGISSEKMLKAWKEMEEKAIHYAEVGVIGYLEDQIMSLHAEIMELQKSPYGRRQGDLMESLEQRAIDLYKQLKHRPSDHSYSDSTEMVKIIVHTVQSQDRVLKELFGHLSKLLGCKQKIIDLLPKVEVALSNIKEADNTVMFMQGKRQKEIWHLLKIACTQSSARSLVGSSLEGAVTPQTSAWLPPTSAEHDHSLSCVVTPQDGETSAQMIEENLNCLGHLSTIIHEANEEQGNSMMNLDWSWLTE
Protocol: as §1, §2, §3, §4

[1] = DELFIA assay (first line of an example)
[2] = non-italicised figure: DELFIA assay

Row | Ki (Recombinant IKKβ; [1]) | Ki (Recombinant IKKα; [1]) | Ki (Recombinant IKKβ; [2]) | Ki (Recombinant IKKα; [2]) | SMILES
1 | > 10000 nM | > 10000 nM | – | – | COC(=O)Nc1cc(-c2cc(-c3ccc(CCN4CCOCC4)cc3)c3[nH]nc(N)c3c2)ccn1 [Example 330, Methyl (4-(3-amino-7-(4-(2-morpholinoethyl)phenyl)-1H-indazol-5-yl)pyridin-2-yl)carbamate]
2 | 2560 nM | 46 nM | – | – | COCCCNCc1cc2c(-c3ccc4[nH]nc(N)c4c3)ccnc2[nH]1 [Example 256, 5-(2-(((3-methoxypropyl)amino)methyl)-1H-pyrrolo[2,3-b]pyridine-4-yl)-1H-indazol-3-amine]
3 | 278 nM | 19 nM | – | – | COC(=O)Nc1cc(-c2cc(CCC(C)(C)C)c3[nH]nc(N)c3c2)ccn1 [Example 293, Methyl (4-(3-amino-7-(3,3-dimethylbutyl)-1H-indazol-5-yl)pyridin-2-yl)carbamate]
4 | – | – | 419 nM | 14 nM | CC(C)c1cccc(NC(=O)Nc2cc(-c3ccc4[nH]nc(N)c4c3)ccn2)c1 [Example 53]
5 | – | – | 1480 nM | 27 nM | Nc1cc(-c2cc(-c3ccc(S(N)(=O)=O)cc3)c3[nH]nc(N)c3c2)ccn1 [Example 121, 4-(3-Amino-5-(2-aminopyridin-4-yl)-1H-indazol-7-yl)benzenesulfonamide]
6 | – | – | > 10000 nM | 418 nM | CN(CCO)C(=O)Nc1cc(-c2ccc3[nH]nc(N)c3c2)ccn1 [Example 44, 3-(4-(3-Amino-1H-indazol-5-yl)pyridin-2-yl)-1-(2-hydroxyethyl)-1-methylurea]
7 | – | – | 461 nM | 72 nM | Cc1cc(-c2ccnc(N)c2)cc2c(N)n[nH]c12 [Example 2, 5-(2-Aminopyridin-4-yl)-7-methyl-1H-indazol-3-amine]
8 | – | – | 680 nM | 10 nM | Nc1cc(-c2cc(-c3cccc(O)c3)c3[nH]nc(N)c3c2)ccn1 [Example 108, 3-(3-Amino-5-(2-aminopyridin-4-yl)-1H-indazol-7-yl)phenol]
9 | 205 nM | 48 nM | – | – | CC(C)(C)C#Cc1cc(-c2ccnc(Nc3cc[nH]n3)c2)cc2c(N)n[nH]c12 [Example 310, 5-(2-((1H-Pyrazol-3-yl)amino)pyridin-4-yl)-7-(3,3-dimethylbut-1-yn-1-yl)-1H-indazol-3-amine]
10 | 210 nM | 45 nM | – | – | Cc1cc(Nc2cc(-c3cc(C#CC(C)(C)C)c4[nH]nc(N)c4c3)ccn2)n[nH]1 [Example 312, 7-(3,3-Dimethylbut-1-yn-1-yl)-5-(2-((5-methyl-1H-pyrazol-3-yl)amino)pyridin-4-yl)-1H-indazol-3-amine]
11 | 4580 nM | 202 nM | – | – | CC(C)(C)C#Cc1cc(-c2ccnc(Nc3ncccn3)c2)cc2c(N)n[nH]c12 [Example 321, 7-(3,3-Dimethylbut-1-yn-1-yl)-5-(2-(pyrimidin-2-ylamino)pyridin-4-yl)-1H-indazol-3-amine]
12 | 386 nM | 12 nM | – | – | Nc1n[nH]c2c(C#CC3CC3)cc(-c3ccnc(NC4COC4)c3)cc12 [Example 284, 7-(Cyclopropylethynyl)-5-(2-(oxetan-3-ylamino)pyridin-4-yl)-1H-indazol-3-amine]
13 | – | – | 1110 nM | 35 nM | COCCNc1cc(-c2cc(C#CC(C)(C)C)c3[nH]nc(N)c3c2)ccn1 [Example 162, 7-(3,3-dimethylbut-1-yn-1-yl)-5-(2-((2-methoxyethyl)amino)pyridin-4-yl)-1H-indazol-3-amine]
14 | 528 nM | 76 nM | – | – | Nc1n[nH]c2c(C#CC3(O)CCCCC3)cc(-c3ccnc4[nH]ccc34)cc12 [Example 208, 1-((3-Amino-5-(1H-pyrrolo[2,3-b]pyridin-4-yl)-1H-indazol-7-yl)ethynyl)cyclohexan-1-ol]
15 | – | – | 754 nM | 34 nM | COCCCNc1cc(-c2ccc3[nH]nc(N)c3c2)ccn1 [Example 26, 5-(2-((3-Methoxypropyl)amino)pyridine-4-yl)-1H-indazol-3-amine]
16 | – | – | 515 nM | 20 nM | COC(=O)Nc1cc(-c2cc(C#CC(C)(C)N)c3[nH]nc(N)c3c2)ccn1 [Example 181, Methyl (4-(3-amino-7-(3-amino-3-methylbut-1-yn-1-yl)-1H-indazol-5-yl)pyridin-2-yl)carbamate1]
17 | – | – | 377 nM | 340 nM | Nc1n[nH]c2ccc(-c3ccnc(NCCN4CCOCC4)c3)cc12 [Example 30, 5-(2-((2-Morpholinoethyl)amino)pyridine-4-yl)-1H-indazol-3-amine]
18 | – | – | 105 nM | 15 nM | Nc1nccc(-c2ccc3[nH]nc(N)c3c2)c1C#CCC1CCNCC1 [Example 97, 5-(2-Amino-3-(3-(piperidin-4-yl)prop-1-yn-1-yl)pyridin-4-yl)-1H-indazol-3-amine]
19 | – | – | 796 nM | 171 nM | Nc1n[nH]c2ccc(-c3ccnc(NCC4CC4)c3)cc12 [Example 15, 5-(2-((Cycipropylmethyl)amino)pyridine-4-yl)-1H-indazol-3-amine]
20 | – | – | > 10000 nM | 221 nM | COCCNc1cc(-c2ccc3[nH]nc(N)c3c2)ccn1 [Example 25, 5-(2-((2-Methoxyethyl)amino)pyridine-4-yl)-1H-indazol-3-amine]
21 | 940 nM | 24 nM | – | – | Cc1n[nH]cc1Nc1cc(-c2cc(C#CC(C)(C)C)c3[nH]nc(N)c3c2)ccn1 [Example 313, 7-(3,3-Dimethylbut-1-yn-1-yl)-5-(2-((3-methyl-1H-pyrazol-4-yl)amino)pyridin-4-yl)-1H-indazol-3-amine]
22 | 570 nM | 42 nM | – | – | Nc1n[nH]c2c(C#CC3CC3)cc(-c3ccnc(NC(=O)C4CC4)c3)cc12 [Example 289, N-(4-(3-Amino-7-(cyclopropylethynyl)-1H-indazol-5-yl)pyridin-2-yl)cyclopropanecarboxamide]
23 | 70 nM | 4 nM | – | – | Nc1n[nH]c2c(Cl)cc(-c3ccnc4[nH]c(CN5CCOCC5)cc34)cc12 [Example 276, 7-Chloro-5-(2-(morpholinomethyl)-1H-pyrrolo[2,3-b]pyridin-4-yl)-1H-indazol-3-amine]
24 | 1340 nM | 13 nM | – | – | CC(C)(C)C#Cc1cc(-c2ccnc3[nH]c(C(F)F)nc23)cc2c(N)n[nH]c12 [Example 300, 5-(2-(Difluoromethyl)-3H-imidazo[4,5-b]pyridin-7-yl)-7-(3,3-dimethylbut-1-yn-1-yl)-1H-indazol-3-amine]

— patent publication US20250304576A1 (Cancer Research Technology Limited, priority 2022, published 2025)
